Test [1] has as its system Omicron BA.2.3 variant. Put plainly: Antiviral activity assay (CPE) in Vero E6 cells, Omicron BA.2.3. The conditions noted are these: Severe acute respiratory syndrome coronavirus 2, Vero C1008, 48 h. The class given is cell-based, SARS-CoV-2.
Test [2] relates to Omicron BA.1.1 variant. Kind of test: Antiviral activity assay (CPE) in Vero E6 cells, Omicron BA.1.1. The class given is cell-based, SARS-CoV-2. To be noted: Severe acute respiratory syndrome coronavirus 2, Vero C1008, 48 h.

Each structure is given as a SMILES string.

In general, EC50 refers to the concentration that produces a half-maximal response. Read a high EC50 as a less potent agent.

In the case of `C[C@@H]1O[C@@H](O[C@@H]2[C@@H](O)[C@H](OCCc3ccc(O)c(O)c3)O[C@H](CO)[C@H]2OC(=O)/C=C/c2ccc(O)c(O)c2)[C@H](O)[C@H](O)[C@H]1O` [Acteoside], the EC50 in test [1] stood at 70.4 µM; in test [2] it was 41.3 µM.

Values taken from article PMC10394814, “Discovery and evaluation of active compounds from Xuanfei Baidu formula against COVID-19 via SARS-CoV-2 M^pro” (Chinese Medicine, 2023).
